Values of other authors, collected in paper PMC9097188, “Design, Synthesis, and Molecular Modeling Studies of a Novel Benzimidazole as an Aromatase Inhibitor” (ACS Omega, 2022).

Biological target: aromatase
Conditions: 3D-QSAR data set, IC50 converted to pIC50; SI reference list; cited from earlier work
For Cc1[nH]c2ccccc2c1C=NNc1cccc(Cl)c1 [compound 106], the “Experimental pIC50” value is listed as 4.718.
For COc1ccc(S(=O)(=O)NCCc2c(C(c3cc(OC)c(O)c(OC)c3)c3[nH]c4ccccc4c3CCNS(=O)(=O)c3ccc(OC)cc3)[nH]c3ccccc23)cc1 [compound 56], the “Experimental pIC50” value is given as 5.602.
For COc1ccc(S(=O)(=O)NCCc2c(C3(c4[nH]c5ccccc5c4CCNS(=O)(=O)c4ccc(OC)cc4)C(=O)Nc4ccccc43)[nH]c3ccccc23)cc1 [compound 59], the “Experimental pIC50” value is given as 5.553.
In the case of Cc1[nH]c2ccccc2c1C=NNc1ccc(Cl)cc1 [compound 107], the “Experimental pIC50” value is given as 5.062.
For Fc1ccc(C2=Nn3c(nnc3-c3ccc(-c4nc5ccc(Cl)cc5[nH]4)cc3)SC2)cc1 [compound 102], the “Experimental pIC50” value is given as 5.643.
In the case of CCn1cc([C@@H](c2ccccc2Cl)n2ccnc2)c2cc(Br)ccc21 [121S], the “Experimental pIC50” value is listed as 6.009.
For O=S(=O)(NCCc1c(C(c2ccc(O)cc2)c2[nH]c3ccccc3c2CCNS(=O)(=O)c2ccc(C(F)(F)F)cc2)[nH]c2ccccc12)c1ccc(C(F)(F)F)cc1 [compound 48], the “Experimental pIC50” value is listed as 5.886.
In the case of COc1ccc(-n2c(Cn3ccnc3)cc3ccc(Cl)cc32)cc1 [compound 26], the “Experimental pIC50” value is listed as 6.692.
In the case of N#Cc1ccc(-n2cc(Cn3ccnc3)c3ccccc32)cc1 [compound 116], the “Experimental pIC50” value is given as 5.851.
For Cc1ccc2nc(-c3ccc(-c4nnc5n4N=C(c4ccc(F)cc4F)CS5)cc3)[nH]c2c1 [compound 82], the “Experimental pIC50” value is given as 7.432.
For O[C@](c1ccc(Br)cc1)(c1cccnc1)c1cc2ccccc2o1 [85R], the “Experimental pIC50” value is listed as 4.600.
For O=S(=O)(NCCc1c(C(c2ccc3c(c2)Cc2ccccc2-3)c2[nH]c3ccccc3c2CCNS(=O)(=O)c2ccc(Cl)cc2)[nH]c2ccccc12)c1ccc(Cl)cc1 [compound 57], the “Experimental pIC50” value is listed as 5.056.
For CCn1cc([C@@H](c2ccc(Cl)cc2Cl)n2cncn2)c2cc(Br)ccc21 [120S], the “Experimental pIC50” value is given as 6.206.
In the case of CC(C)n1cc([C@@H](c2ccc(F)cc2)n2ccnc2)c2cc(Br)ccc21 [78R], the “Experimental pIC50” value is given as 6.495.
For Fc1cccc(-n2cc(Cn3ccnc3)c3ccccc32)c1 [compound 115], the “Experimental pIC50” value is listed as 5.513.
For Cc1ccc(S(=O)(=O)NCCc2c(C(c3ccccc3O)c3[nH]c4ccccc4c3CCNS(=O)(=O)c3ccc(C)cc3)[nH]c3ccccc23)cc1 [compound 50], the “Experimental pIC50” value is listed as 5.387.
In the case of CCn1cc([C@H](c2ccccc2Cl)n2ccnc2)c2cc(Br)ccc21 [121R], the “Experimental pIC50” value is listed as 6.009.
In the case of COc1ccc(S(=O)(=O)NCCc2c(C(c3ccccc3)c3[nH]c4ccccc4c3CCNS(=O)(=O)c3ccc(OC)cc3)[nH]c3ccccc23)cc1 [compound 31], the “Experimental pIC50” value is listed as 5.456.
For COc1ccc2cc(Cn3ccnc3)n(-c3ccc(F)cc3)c2c1 [compound 21], the “Experimental pIC50” value is listed as 7.310.
For O=S(=O)(NCCc1c(C(c2ccc(C(F)(F)F)cc2)c2[nH]c3ccccc3c2CCNS(=O)(=O)c2ccc(Br)cc2)[nH]c2ccccc12)c1ccc(Br)cc1 [compound 43], the “Experimental pIC50” value is listed as 5.420.
For CCn1cc([C@@H](c2ccc(F)cc2)n2cncn2)c2cc(Br)ccc21 [119R], the “Experimental pIC50” value is listed as 6.016.
For COc1ccc(S(=O)(=O)NCCc2c(C(c3ccccc3O)c3[nH]c4ccccc4c3CCNS(=O)(=O)c3ccc(OC)cc3)[nH]c3ccccc23)cc1 [compound 52], the “Experimental pIC50” value is given as 6.097.
In the case of O=S(=O)(NCCc1c[nH]c2ccccc12)c1ccccc1 [compound 65], the “Experimental pIC50” value is given as 6.699.
For COc1ccc(-n2c(Cn3ccnc3)cc3ccccc32)cc1 [compound 12], the “Experimental pIC50” value is given as 7.111.
In the case of O=S(=O)(NCCc1c(C(c2ccc(O)cc2)c2[nH]c3ccccc3c2CCNS(=O)(=O)c2ccc(Cl)cc2)[nH]c2ccccc12)c1ccc(Cl)cc1 [compound 47], the “Experimental pIC50” value is listed as 5.854.
For O=S(=O)(NCCc1c(C(c2ccc(Br)cc2)c2[nH]c3ccccc3c2CCNS(=O)(=O)c2ccc(Cl)cc2)[nH]c2ccccc12)c1ccc(Cl)cc1 [compound 38], the “Experimental pIC50” value is given as 5.569.
For O=S(=O)(NCCc1c(C(c2ccc(Br)cc2)c2[nH]c3ccccc3c2CCNS(=O)(=O)c2ccc(C(F)(F)F)cc2)[nH]c2ccccc12)c1ccc(C(F)(F)F)cc1 [compound 39], the “Experimental pIC50” value is given as 5.469.
For CCn1cc([C@H](c2ccc(F)cc2)n2ccnc2)c2cc(C#N)ccc21 [76S], the “Experimental pIC50” value is listed as 6.495.
In the case of CCn1cc([C@H](c2ccc(F)cc2)n2cncn2)c2cc(Br)ccc21 [119S], the “Experimental pIC50” value is listed as 6.016.
For CCn1c([C@H](c2ccc(F)cc2)n2ccnc2)c(C)c2ccccc21 [73S], the “Experimental pIC50” value is given as 6.921.
In the case of CCn1c([C@@H](c2ccc(F)cc2)n2ccnc2)c(C)c2ccccc21 [73R], the “Experimental pIC50” value is given as 6.921.
In the case of O=C1Nc2ccccc2C1(c1[nH]c2ccccc2c1CCNS(=O)(=O)c1ccccc1[N+](=O)[O-])c1[nH]c2ccccc2c1CCNS(=O)(=O)c1ccccc1[N+](=O)[O-] [compound 62], the “Experimental pIC50” value is given as 5.009.
In the case of O=S(=O)(NCCc1c(C(c2ccc(C(F)(F)F)cc2)c2[nH]c3ccccc3c2CCNS(=O)(=O)c2ccc(Cl)cc2)[nH]c2ccccc12)c1ccc(Cl)cc1 [compound 44], the “Experimental pIC50” value is listed as 5.495.
In the case of Clc1ccccc1-n1cc(Cn2cncn2)c2ccccc21 [compound 113], the “Experimental pIC50” value is listed as 5.456.
For COc1ccc(-n2c(Cn3ccnc3)cc3ccc(C)cc32)cc1 [compound 17], the “Experimental pIC50” value is listed as 6.858.
For Cc1ccc2nc(-c3ccc(-c4nnc5n4N=C(c4ccc(C#N)cc4)CS5)cc3)[nH]c2c1 [compound 81], the “Experimental pIC50” value is given as 5.871.
In the case of Cc1ccc2nc(-c3ccc(-c4nnc5n4N=C(c4ccc(F)cc4)CS5)cc3)[nH]c2c1 [compound 80], the “Experimental pIC50” value is listed as 5.906.
In the case of CCn1cc([C@@H](c2ccc(F)cc2)n2ccnc2)c2cc(C#N)ccc21 [76R], the “Experimental pIC50” value is given as 6.495.
In the case of CCn1c([C@@H](c2cccc(Cl)c2)n2ccnc2)c(C)c2cc(Br)ccc21 [69R], the “Experimental pIC50” value is given as 6.027.
For O=[N+]([O-])c1ccc(S(=O)(=O)NCCc2c(C(c3ccc(O)cc3)c3[nH]c4ccccc4c3CCNS(=O)(=O)c3ccc([N+](=O)[O-])cc3)[nH]c3ccccc23)cc1 [compound 49], the “Experimental pIC50” value is given as 5.638.
For N#Cc1ccc(C2=Nn3c(nnc3-c3ccc(-c4nc5ccc(Cl)cc5[nH]4)cc3)SC2)cc1 [compound 103], the “Experimental pIC50” value is given as 5.806.
For Clc1cccc([C@H](c2ccc3[nH]ccc3c2)n2ccnc2)c1 [3S], the “Experimental pIC50” value is listed as 6.527.
In the case of O=[N+]([O-])c1cccc(S(=O)(=O)NCCc2c(C(c3ccccc3O)c3[nH]c4ccccc4c3CCNS(=O)(=O)c3cccc([N+](=O)[O-])c3)[nH]c3ccccc23)c1 [compound 54], the “Experimental pIC50” value is listed as 5.770.
In the case of CCn1c2ccccc2c2cc(C(c3[nH]c4ccccc4c3CCNS(=O)(=O)c3ccccc3)c3[nH]c4ccccc4c3CCNS(=O)(=O)c3ccccc3)ccc21 [compound 58], the “Experimental pIC50” value is listed as 5.409.
In the case of Clc1ccccc1-n1cc(Cn2ccnc2)c2ccccc21 [compound 112], the “Experimental pIC50” value is given as 6.762.
For COc1ccc(S(=O)(=O)NCCc2c(C(c3ccc(O)cc3)c3[nH]c4ccccc4c3CCNS(=O)(=O)c3ccc(OC)cc3)[nH]c3ccccc23)cc1 [compound 46], the “Experimental pIC50” value is listed as 6.155.
For O=[N+]([O-])c1ccccc1S(=O)(=O)NCCc1c(C(c2ccccc2O)c2[nH]c3ccccc3c2CCNS(=O)(=O)c2ccccc2[N+](=O)[O-])[nH]c2ccccc12 [compound 55], the “Experimental pIC50” value is listed as 5.337.
In the case of N#Cc1ccc(C(c2ccc3[nH]ccc3c2)n2ccnc2)cc1 (stereo not shown) [5S], the “Experimental pIC50” value is given as 7.714.
In the case of Clc1cccc([C@@H](c2ccc3[nH]ccc3c2)n2ccnc2)c1 [3R], the “Experimental pIC50” value is listed as 6.527.
